Measured values: the supplement of paper PMC11451515

Tests used:
Conditions in all cases: 48 h
SEM cells [1] = experiment: cell viability relative to DMSO control; higher = less cytotoxic
How it was run: (§1)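 Library compounds in DMSO were pin-dosed in an 11-point threefold series (47 μM to 0.79 nM) onto leukemia cells in 1536-well plates (5 μl). Plates held 500 cells/well of NOMO1 or SEM or 1000 cells/well of P12-Ichikawa, each adapted for at least four passages in each medium. Luminescence was read with CellTiter-Glo One after 48 h at 37°C. Viability means the per-plate percentage relative to DMSO wells, using cell-free wells as background.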

P12-Ichikawa [2] = experiment: as above
How it was run: as §1

NOMO1 [3] = experiment: as above
How it was run: as §1

SEM cells [4] = experiment: AUC of viability dose-response curve (% viability x log10 dose units); higher = less sensitive
How it was run: (§2)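 Leukemia cells adapted to each medium were seeded in 1536-well plates (500 or 1000 cells/well) and given library compounds in DMSO for 48 h at 37°C. The 11 threefold doses spanned 47 μM to 0.79 nM, and CellTiter-Glo One luminescence was normalised per plate to DMSO and cell-free wells before four-parameter log-logistic fitting on log10 dose. Area under the curve was integrated with the trapezoidal rule, scaling curves above full viability and removing curves that failed quality control.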

P12-Ichikawa [5] = experiment: as above
How it was run: as §2

NOMO1 [6] = experiment: as above
How it was run: as §2

O=C(N[C@H]1CN2CCC1CC2)c1ccc(Cl)cc1
cell viability [%]
Conditions | NOMO1 [3] | P12-Ichikawa [2] | SEM cells [1]
HPLM + 10% dialyzed FBS, 0.000781 µM | 91.3 | 99.2 | 89.3
HPLM + 10% dialyzed FBS, 0.00234 µM | 106 | 107 | 96.5
HPLM + 10% dialyzed FBS, 0.00702 µM | 110 | 104 | 95.5
HPLM + 10% dialyzed FBS, 0.0211 µM | 138 | 110 | 99.8
HPLM + 10% dialyzed FBS, 0.0632 µM | 123 | 110 | 98.7
HPLM + 10% dialyzed FBS, 0.19 µM | 127 | 116 | 87.4
HPLM + 10% dialyzed FBS, 0.569 µM | 118 | 114 | 96.3
HPLM + 10% dialyzed FBS, 1.71 µM | 107 | 114 | 105
HPLM + 10% dialyzed FBS, 5.12 µM | 127 | 116 | 102
HPLM + 10% dialyzed FBS, 15.4 µM | 103 | 109 | 98.5
HPLM + 10% dialyzed FBS, 46.1 µM | 68.1 | 99.2 | 84.4
RPMI 5 mM glucose + 10% FBS, 0.000781 µM | 97.8 | 110 | 84
RPMI 5 mM glucose + 10% FBS, 0.00234 µM | 97.1 | 106 | 92.2
RPMI 5 mM glucose + 10% FBS, 0.00702 µM | 103 | 114 | 99.5
RPMI 5 mM glucose + 10% FBS, 0.0211 µM | 101 | 103 | 87.8
RPMI 5 mM glucose + 10% FBS, 0.0632 µM | 114 | 108 | 96.1
RPMI 5 mM glucose + 10% FBS, 0.19 µM | 103 | 111 | 95.9
RPMI 5 mM glucose + 10% FBS, 0.569 µM | 103 | 114 | 101
RPMI 5 mM glucose + 10% FBS, 1.71 µM | 94.8 | 110 | 99.5
RPMI 5 mM glucose + 10% FBS, 5.12 µM | 92.2 | 106 | 93.3
RPMI 5 mM glucose + 10% FBS, 15.4 µM | 102 | 101 | 88.6
RPMI 5 mM glucose + 10% FBS, 46.1 µM | 98.3 | 99.9 | 60.2
RPMI 5 mM glucose + 10% dialyzed FBS, 0.000781 µM | 107 | 98.2 | 93.2
RPMI 5 mM glucose + 10% dialyzed FBS, 0.00234 µM | 101 | 100 | 98.9
RPMI 5 mM glucose + 10% dialyzed FBS, 0.00702 µM | 97.2 | 104 | 94.8
RPMI 5 mM glucose + 10% dialyzed FBS, 0.0211 µM | 91.4 | 114 | 94.3
RPMI 5 mM glucose + 10% dialyzed FBS, 0.0632 µM | 108 | 118 | 104
RPMI 5 mM glucose + 10% dialyzed FBS, 0.19 µM | 109 | 116 | 116
RPMI 5 mM glucose + 10% dialyzed FBS, 0.569 µM | 103 | 113 | 96.1
RPMI 5 mM glucose + 10% dialyzed FBS, 1.71 µM | 92.2 | 114 | 93.2
RPMI 5 mM glucose + 10% dialyzed FBS, 5.12 µM | 103 | 102 | 94.1
RPMI 5 mM glucose + 10% dialyzed FBS, 15.4 µM | 106 | 104 | 107
RPMI 5 mM glucose + 10% dialyzed FBS, 46.1 µM | 109 | 92.4 | 76.1

AUC of viability dose-response curve
Conditions | NOMO1 [6] | P12-Ichikawa [5] | SEM cells [4]
HPLM + 10% dialyzed FBS | 462 | 467 | 457
RPMI 5 mM glucose + 10% FBS | 470 | 469 | 439
RPMI 5 mM glucose + 10% dialyzed FBS | 469 | 466 | 468

CC[C@@H](C)[C@H](NC(=O)[C@H](CC1CCCCC1)NC(=O)c1ccno1)C(=O)N1CCC2(CCc3ccccc32)CC1
cell viability [%]
Conditions | NOMO1 [3] | P12-Ichikawa [2] | SEM cells [1]
HPLM + 10% dialyzed FBS, 0.000781 µM | 85.9 | 94 | 41.9
HPLM + 10% dialyzed FBS, 0.00234 µM | 90.6 | 89.4 | 88.3
HPLM + 10% dialyzed FBS, 0.00702 µM | 86.1 | 92.7 | 78.3
HPLM + 10% dialyzed FBS, 0.0211 µM | 78.9 | 88.9 | 86
HPLM + 10% dialyzed FBS, 0.0632 µM | 108 | 95 | 65.4
HPLM + 10% dialyzed FBS, 0.19 µM | 97.3 | 94.1 | 86.3
HPLM + 10% dialyzed FBS, 0.569 µM | 75.9 | 75.8 | 83.7
HPLM + 10% dialyzed FBS, 1.71 µM | 66.1 | 80.8 | 87.1
HPLM + 10% dialyzed FBS, 5.12 µM | 79.2 | 89.2 | 93.1
HPLM + 10% dialyzed FBS, 15.4 µM | 81.7 | 78.9 | 82.6
HPLM + 10% dialyzed FBS, 46.1 µM | 69.9 | 83.3 | 70.3
RPMI 5 mM glucose + 10% FBS, 0.000781 µM | 80.1 | 79 | 49.4
RPMI 5 mM glucose + 10% FBS, 0.00234 µM | 88.6 | 81.5 | 102
RPMI 5 mM glucose + 10% FBS, 0.00702 µM | 81.1 | 101 | 103
RPMI 5 mM glucose + 10% FBS, 0.0211 µM | 79.9 | 88.7 | 89.2
RPMI 5 mM glucose + 10% FBS, 0.0632 µM | 77.1 | 89.8 | 67.5
RPMI 5 mM glucose + 10% FBS, 0.19 µM | 78.3 | 85.9 | 71.5
RPMI 5 mM glucose + 10% FBS, 0.569 µM | 89.1 | 64.5 | 88
RPMI 5 mM glucose + 10% FBS, 1.71 µM | 81.9 | 71.9 | 73.7
RPMI 5 mM glucose + 10% FBS, 5.12 µM | 84.6 | 99.8 | 79.3
RPMI 5 mM glucose + 10% FBS, 15.4 µM | 74.4 | 70.1 | 73.8
RPMI 5 mM glucose + 10% FBS, 46.1 µM | 72.2 | 74.6 | 81.3
RPMI 5 mM glucose + 10% dialyzed FBS, 0.000781 µM | 84 | 84.3 | 55.4
RPMI 5 mM glucose + 10% dialyzed FBS, 0.00234 µM | 85.4 | 89.3 | 111
RPMI 5 mM glucose + 10% dialyzed FBS, 0.00702 µM | 84 | 83.2 | 99.2
RPMI 5 mM glucose + 10% dialyzed FBS, 0.0211 µM | 77.9 | 81.4 | 105
RPMI 5 mM glucose + 10% dialyzed FBS, 0.0632 µM | 87.6 | 77.1 | 83.6
RPMI 5 mM glucose + 10% dialyzed FBS, 0.19 µM | 82.4 | 82.2 | 99.1
RPMI 5 mM glucose + 10% dialyzed FBS, 0.569 µM | 76.2 | 79.6 | 82.1
RPMI 5 mM glucose + 10% dialyzed FBS, 1.71 µM | 69.8 | 82 | 99.1
RPMI 5 mM glucose + 10% dialyzed FBS, 5.12 µM | 82.6 | 84.6 | 95.6
RPMI 5 mM glucose + 10% dialyzed FBS, 15.4 µM | 73.7 | 76 | 93.9
RPMI 5 mM glucose + 10% dialyzed FBS, 46.1 µM | 83.2 | 77 | 91.9

AUC of viability dose-response curve
Conditions | NOMO1 [6] | P12-Ichikawa [5] | SEM cells [4]
HPLM + 10% dialyzed FBS | 399 | 418 | 382
RPMI 5 mM glucose + 10% FBS | 385 | 394 | 381
RPMI 5 mM glucose + 10% dialyzed FBS | 385 | 388 | 449
